Assay results from ChEMBL document CHEMBL6074690, “Development and Characterization of a High-Affinity Selective Galectin-3 Mouse Tool Compound in Mouse Models of Cancer” (J Med Chem, 2024).

How the values were obtained:
[1] = Intrinsic clearance in mouse hepatocytes measured per million cells at 2 uM incubated for 15 to 120 mins by LC-MS/MS analysis; type: ADME, cell-based, Hepatocyte; details: time 15-120 min, read-out: CLH
[2] = Apparent permeability across basal to apical side in human Caco-2 cells at 10 uM incubated for 90 mins by LC-MS/MS analysis; type: ADME, cell-based
[3] = Lipophilicity, log D of compound in potassium phosphate buffer/octanol at pH 7.4 by shake flask method; type: physicochemical
[4] = Apparent permeability across apical to basal side in human Caco-2 cells at 10 uM incubated for 90 mins by LC-MS/MS analysis; type: ADME, cell-based
[5] = Intrinsic clearance in human hepatocytes measured per million cells at 2 uM incubated for 15 to 120 mins by LC-MS/MS analysis; type: ADME, cell-based, Hepatocyte; details: time 15-120 min, read-out: CLH
[6] = Unbound drug level in C57BL/6 mouse at 30 mg/kg, po measured for 12 hrs; type: ADME, organism-based; details: in vivo

hepatocyte CLint at 2 µM [1] [µL/min/1e6 cells] | Papp B→A at […], 10 µM [2] [×10⁻⁶ cm/s] | logD [3] | Papp A→B at […], 10 µM [4] [×10⁻⁶ cm/s] | hepatocyte CLint at 2 µM [5] [µL/min/1e6 cells] | Drug uptake(free) [6] | Structure (SMILES)
[…] | […] | […] | […] | 0.15 |  | OC[C@H]1O[C@@H](Sc2cncc(Br)c2)[C@H](O)[C@@H](n2cc(-c3cc(F)c(F)c(F)c3)nn2)[C@H]1O
0.8 | […] | 4.6 | […] | 0.7 |  | OC[C@H]1O[C@@H](Sc2ccc(Cl)c(Cl)c2)[C@H](O)[C@@H](n2cc(-c3cc(F)c(F)c(F)c3)nn2)[C@H]1O
0.6 | 17 | > 4 |  |  | Active | OC[C@H]1O[C@@H](Sc2cncc(Br)c2)[C@H](O)[C@@H](n2cc(-c3cc(F)c(Cl)c(F)c3)nn2)[C@H]1O
